Assay results reported in patent US20250163104A1, “MACROCYCLIC IMMUNOMODULATORS” (priority 2021, published 2025).
Where a SMILES comes first, the peptide text is derived from it. Bridges are numbered along the chain shown (N, C = ends). [ ]: non-standard residue; d: D form. The star is where a group is joined. Ala(1H-tetrazol-5-yl) = N[C@@H](Cc1nnn[nH]1)C(=O)O; Phe(4-COOH) = N[C@@H](Cc1ccc(C(=O)O)cc1)C(=O)O; Bip = N[C@@H](Cc1ccc(-c2ccccc2)cc1)C(=O)O; Phe(3-Me) = Cc1cccc(C[C@H](N)C(=O)O)c1; 4Pal = N[C@@H](Cc1ccncc1)C(=O)O; Carboxymethyl = O=C(O)C*; Orn = NCCC[C@H](N)C(=O)O; Dab = NCC[C@H](N)C(=O)O; Dap = NC[C@H](N)C(=O)O

The compounds below were run against T1, human PD-1 / PD-L1-Ig binding on Jurkat cell line over-expressing human PD-1 (Jurkat-PD-1) (Homo sapiens, UniProt Q15116) (assay: Jurkat-PD-1 Cell Binding High-Content Screening Assay (CBA)). Conditions: Jurkat HPD1_PDL1 IC50, Jurkat-PD-1 cells, PE-labeled PD-L1-Ig 20 nM final.
T1 construct: expressed in transfected cells; host or cells: Jurkat
Assay type: cell-based
Method in brief: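 Compounds were preincubated with Jurkat-hPD-1 cells in DMEM plus 10% fetal calf serum for 2 h at 37° C. Phycoerythrin-labeled PD-L1-Ig (20 nM final) was then added for 1 hour. Cells were fixed in 4% paraformaldehyde with Hoechst 33342, and bound fluorescence was quantified by high-content imaging.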

T1 sequence (Q15116 25-288): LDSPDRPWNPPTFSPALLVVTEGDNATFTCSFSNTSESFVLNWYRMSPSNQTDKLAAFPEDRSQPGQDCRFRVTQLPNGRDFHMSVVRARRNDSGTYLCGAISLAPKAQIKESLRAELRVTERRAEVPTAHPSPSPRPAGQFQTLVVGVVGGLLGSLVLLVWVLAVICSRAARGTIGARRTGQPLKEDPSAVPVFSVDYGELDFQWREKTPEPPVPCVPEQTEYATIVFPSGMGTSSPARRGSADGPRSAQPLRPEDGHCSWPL

Q: With CC(C)C[C@@H]1NC(=O)[C@H](Cc2c[nH]c3ccccc23)NC(=O)[C@H](CC(=O)O)NC(=O)[C@H](Cc2ccc(OCC(=O)O)cc2)NC(=O)[C@H](CN)NC(=O)CSC[C@@H](C(=O)NCC(N)=O)NC(=O)[C@H](CO)NC(=O)[C@H](C(C)C)NC(=O)[C@H](CC(C)C)NC(=O)[C@H](CC(N)=O)NC(=O)[C@@H](CC(C)C)NC(=O)[C@H](CN)NC(=O)[C@H](C(C)C)NC(=O)[C@H](Cc2ccc(-c3ccccc3)cc2)NC1=O [Compound 1276] ({CH2CO}-[Dap]Y(Carboxymethyl)DWL[Bip]V[Dap][dL]NLVSCG-NH2; thioether N-14) as the compound, how does the IC50 read?
A: Its IC50 is 8.1 nM.

Q: How did the IC50 turn out when CC(C)C[C@@H]1NC(=O)[C@H](Cc2c[nH]c3ccccc23)NC(=O)[C@H](CC(=O)O)NC(=O)[C@H](Cc2ccc(OCC(=O)O)cc2)NC(=O)[C@H](CN)NC(=O)CSC[C@@H](C(=O)NCC(N)=O)NC(=O)[C@H](CO)NC(=O)[C@H](C(C)C)NC(=O)[C@H](CC(C)C)NC(=O)[C@H](CC(N)=O)NC(=O)[C@@H](CC(C)C)NC(=O)[C@H](CCN)NC(=O)[C@H](C(C)C)NC(=O)[C@H](Cc2ccc(-c3ccccc3)cc2)NC1=O [Compound 1280] ({CH2CO}-[Dap]Y(Carboxymethyl)DWL[Bip]V[Dab][dL]NLVSCG-NH2; thioether N-14) was run?
A: The IC50 was 9.7 nM.

Same assay, conditions: Jurkat-PD-1 cells, PE-labeled PD-L1-Ig 20 nM final; read-out: Jurkat HPD1_PDL1 IC50

Q: How did the IC50 turn out when Cc1cccc(C[C@@H]2NC(=O)[C@H](CC(=O)O)NC(=O)[C@H](Cc3ccc(OCC(=O)O)cc3)NC(=O)[C@H](CN)NC(=O)CSC[C@@H](C(=O)NCC(N)=O)NC(=O)[C@H](CO)NC(=O)[C@H](C(C)C)NC(=O)[C@H](CC(C)C)NC(=O)[C@H](CCN)NC(=O)[C@@H](CC(C)C)NC(=O)[C@H](CCCN)NC(=O)[C@H](C(C)C)NC(=O)[C@H](Cc3ccc(-c4ccccc4)cc3)NC(=O)[C@H](CC(C)C)NC2=O)c1 [Compound 1264] ({CH2CO}-[Dap]Y(Carboxymethyl)D[Phe(3-Me)]L[Bip]V[Orn][dL][Dab]LVSCG-NH2; thioether N-14) was run?
A: Its IC50 is 4.5 nM.

Q: How did the IC50 turn out when Cc1cccc(C[C@@H]2NC(=O)[C@H](CC(=O)O)NC(=O)[C@H](Cc3ccncc3)NC(=O)[C@H](Cc3ccc(OCC(=O)O)cc3)NC(=O)CSC[C@@H](C(=O)NCC(N)=O)NC(=O)[C@H](CO)NC(=O)[C@H](C(C)C)NC(=O)[C@H](CC(C)C)NC(=O)[C@H](CCN)NC(=O)[C@@H](CC(C)C)NC(=O)[C@H](CCCN)NC(=O)[C@H](C(C)C)NC(=O)[C@H](Cc3ccc(-c4ccccc4)cc3)NC(=O)[C@H](CC(C)C)NC2=O)c1 [Compound 1265] ({CH2CO}-Y(Carboxymethyl)[4Pal]D[Phe(3-Me)]L[Bip]V[Orn][dL][Dab]LVSCG-NH2; thioether N-14) was run?
A: The IC50 was 7.7 nM.

Q: Which IC50 does the source give for CC(C)C[C@@H]1NC(=O)[C@H](CCN)NC(=O)[C@@H](CC(C)C)NC(=O)[C@H](CCN)NC(=O)[C@H](CCC(=O)O)NC(=O)[C@H](Cc2ccc(-c3ccccc3)cc2)NC(=O)[C@H](C(C)C)NC(=O)[C@H](Cc2c[nH]c3ccccc23)NC(=O)[C@H](CC(=O)O)NC(=O)[C@H](Cc2ccc(OCC(=O)O)cc2)NC(=O)[C@H](Cc2ccncc2)NC(=O)CSC[C@@H](C(=O)N[C@@H](C)C(N)=O)NC(=O)[C@H](CO)NC(=O)[C@H](C(C)C)NC1=O [Compound 1266] ({CH2CO}-[4Pal]Y(Carboxymethyl)DWV[Bip]E[Dab][dL][Dab]LVSCA-NH2; thioether N-14) here?
A: The IC50 was 29.6 nM.

Q: For CC(C)C[C@@H]1NC(=O)[C@H](CCN)NC(=O)[C@@H](CC(C)C)NC(=O)[C@H](CCN)NC(=O)[C@H](CCC(=O)O)NC(=O)[C@H](Cc2ccc(-c3ccccc3)cc2)NC(=O)[C@H](C(C)C)NC(=O)[C@H](Cc2c[nH]c3ccccc23)NC(=O)[C@H](CC(=O)O)NC(=O)[C@H](Cc2ccncc2)NC(=O)[C@H](CN)NC(=O)CSC[C@@H](C(=O)N[C@@H](C)C(N)=O)NC(=O)[C@H](CO)NC(=O)[C@H](C(C)C)NC1=O [Compound 1267] ({CH2CO}-[Dap][4Pal]DWV[Bip]E[Dab][dL][Dab]LVSCA-NH2; thioether N-14), which IC50 is on record?
A: Its IC50 is 99.9 nM.

Q: Which IC50 does the source give for CC(C)C[C@@H]1NC(=O)[C@H](CCN)NC(=O)[C@@H](CC(C)C)NC(=O)[C@H](CCN)NC(=O)[C@H](CCC(=O)O)NC(=O)[C@H](Cc2ccc(-c3ccccc3)cc2)NC(=O)[C@H](C(C)C)NC(=O)[C@H](Cc2c[nH]c3ccccc23)NC(=O)[C@H](CC(=O)O)NC(=O)[C@H](Cc2ccc(OCC(=O)O)cc2)NC(=O)[C@H](Cc2ccc(OCC(=O)O)cc2)NC(=O)CSC[C@@H](C(=O)N[C@@H](C)C(N)=O)NC(=O)[C@H](CO)NC(=O)[C@H](C(C)C)NC1=O [Compound 1268] ({CH2CO}-Y(Carboxymethyl)Y(Carboxymethyl)DWV[Bip]E[Dab][dL][Dab]LVSCA-NH2; thioether N-14) here?
A: Its IC50 is 24.6 nM.

Q: How did the IC50 turn out when CC(C)C[C@@H]1NC(=O)[C@H](CCN)NC(=O)[C@@H](CC(C)C)NC(=O)[C@H](CCN)NC(=O)[C@H](CCC(=O)O)NC(=O)[C@H](Cc2ccc(-c3ccccc3)cc2)NC(=O)[C@H](C(C)C)NC(=O)[C@H](Cc2c[nH]c3ccccc23)NC(=O)[C@H](CC(=O)O)NC(=O)[C@H](Cc2ccc(C(=O)O)cc2)NC(=O)[C@H](Cc2ccc(OCC(=O)O)cc2)NC(=O)CSC[C@@H](C(=O)N[C@@H](C)C(N)=O)NC(=O)[C@H](CO)NC(=O)[C@H](C(C)C)NC1=O [Compound 1269] ({CH2CO}-Y(Carboxymethyl)[Phe(4-COOH)]DWV[Bip]E[Dab][dL][Dab]LVSCA-NH2; thioether N-14) was run?
A: The IC50 was 40.4 nM.

Q: How did the IC50 turn out when Cc1cccc(C[C@@H]2NC(=O)[C@H](Cc3nn[nH]n3)NC(=O)[C@H](Cc3ccc(OCC(=O)O)cc3)NC(=O)[C@H](CN)NC(=O)CSC[C@@H](C(=O)NCC(N)=O)NC(=O)[C@H](CO)NC(=O)[C@H](C(C)C)NC(=O)[C@H](CC(C)C)NC(=O)[C@H](CC(N)=O)NC(=O)[C@@H](CC(C)C)NC(=O)[C@H](CN)NC(=O)[C@H](C(C)C)NC(=O)[C@H](Cc3ccc(-c4ccccc4)cc3)NC(=O)[C@H](CC(C)C)NC2=O)c1 [Compound 1273] ({CH2CO}-[Dap]Y(Carboxymethyl)[Ala(1H-tetrazol-5-yl)][Phe(3-Me)]L[Bip]V[Dap][dL]NLVSCG-NH2; thioether N-14) was run?
A: Its IC50 is 54.8 nM.

Q: How did the IC50 turn out when CC(C)C[C@@H]1NC(=O)[C@H](Cc2c[nH]c3ccccc23)NC(=O)[C@H](CC(=O)O)NC(=O)[C@H](Cc2ccc(O)cc2)NC(=O)[C@H](Cc2ccccc2)NC(=O)CSC[C@@H](C(=O)NCC(N)=O)NC(=O)[C@H](CO)NC(=O)[C@H](C(C)C)NC(=O)[C@H](CC(C)C)NC(=O)[C@H](CC(N)=O)NC(=O)[C@@H](CC(C)C)NC(=O)[C@H](CN)NC(=O)[C@H](C(C)C)NC(=O)[C@H](Cc2ccc(-c3ccccc3)cc2)NC1=O [Compound 1274] ({CH2CO}-FYDWL[Bip]V[Dap][dL]NLVSCG-NH2; thioether N-14) was run?
A: Its IC50 is 38.4 nM.

Q: Which IC50 does the source give for CC(C)C[C@@H]1NC(=O)[C@H](Cc2c[nH]c3ccccc23)NC(=O)[C@H](CC(=O)O)NC(=O)[C@H](Cc2ccc(C(=O)O)cc2)NC(=O)[C@H](Cc2ccc(OCC(=O)O)cc2)NC(=O)CSC[C@@H](C(=O)NCC(N)=O)NC(=O)[C@H](CO)NC(=O)[C@H](C(C)C)NC(=O)[C@H](CC(C)C)NC(=O)[C@H](CC(N)=O)NC(=O)[C@@H](CC(C)C)NC(=O)[C@H](CN)NC(=O)[C@H](C(C)C)NC(=O)[C@H](Cc2ccc(-c3ccccc3)cc2)NC1=O [Compound 1275] ({CH2CO}-Y(Carboxymethyl)[Phe(4-COOH)]DWL[Bip]V[Dap][dL]NLVSCG-NH2; thioether N-14) here?
A: The IC50 was 13.8 nM.

Q: CC(C)C[C@@H]1NC(=O)[C@H](Cc2c[nH]c3ccccc23)NC(=O)[C@H](CC(=O)O)NC(=O)[C@H](Cc2ccncc2)NC(=O)[C@H](CN)NC(=O)CSC[C@@H](C(=O)NCC(N)=O)NC(=O)[C@H](CO)NC(=O)[C@H](C(C)C)NC(=O)[C@H](CC(C)C)NC(=O)[C@H](CC(N)=O)NC(=O)[C@@H](CC(C)C)NC(=O)[C@H](CN)NC(=O)[C@H](C(C)C)NC(=O)[C@H](Cc2ccc(-c3ccccc3)cc2)NC1=O [Compound 1277] ({CH2CO}-[Dap][4Pal]DWL[Bip]V[Dap][dL]NLVSCG-NH2; thioether N-14) was tested. Which IC50 did it give?
A: Its IC50 is 8.6 nM.

Q: Which IC50 does the source give for CC(C)C[C@@H]1NC(=O)[C@H](Cc2c[nH]c3ccccc23)NC(=O)[C@H](CC(=O)O)NC(=O)[C@H](Cc2ccncc2)NC(=O)[C@H](Cc2ccc(OCC(=O)O)cc2)NC(=O)CSC[C@@H](C(=O)NCC(N)=O)NC(=O)[C@H](CO)NC(=O)[C@H](C(C)C)NC(=O)[C@H](CC(C)C)NC(=O)[C@H](CC(N)=O)NC(=O)[C@@H](CC(C)C)NC(=O)[C@H](CN)NC(=O)[C@H](C(C)C)NC(=O)[C@H](Cc2ccc(-c3ccccc3)cc2)NC1=O [Compound 1278] ({CH2CO}-Y(Carboxymethyl)[4Pal]DWL[Bip]V[Dap][dL]NLVSCG-NH2; thioether N-14) here?
A: The IC50 was 27.3 nM.

Q: CC(C)C[C@@H]1NC(=O)[C@H](Cc2c[nH]c3ccccc23)NC(=O)[C@H](CC(=O)O)NC(=O)[C@H](Cc2ccc(C(=O)O)cc2)NC(=O)[C@H](Cc2ccc(OCC(=O)O)cc2)NC(=O)CSC[C@@H](C(=O)NCC(N)=O)NC(=O)[C@H](CO)NC(=O)[C@H](C(C)C)NC(=O)[C@H](CC(C)C)NC(=O)[C@H](CC(N)=O)NC(=O)[C@@H](CC(C)C)NC(=O)[C@H](CCN)NC(=O)[C@H](C(C)C)NC(=O)[C@H](Cc2ccc(-c3ccccc3)cc2)NC1=O [Compound 1279] ({CH2CO}-Y(Carboxymethyl)[Phe(4-COOH)]DWL[Bip]V[Dab][dL]NLVSCG-NH2; thioether N-14) was tested. Which IC50 did it give?
A: Its IC50 is 13.6 nM.

Q: How did the IC50 turn out when CC(C)C[C@@H]1NC(=O)[C@H](Cc2c[nH]c3ccccc23)NC(=O)[C@H](CC(=O)O)NC(=O)[C@H](Cc2ccncc2)NC(=O)[C@H](CN)NC(=O)CSC[C@@H](C(=O)NCC(N)=O)NC(=O)[C@H](CO)NC(=O)[C@H](C(C)C)NC(=O)[C@H](CC(C)C)NC(=O)[C@H](CC(N)=O)NC(=O)[C@@H](CC(C)C)NC(=O)[C@H](CCN)NC(=O)[C@H](C(C)C)NC(=O)[C@H](Cc2ccc(-c3ccccc3)cc2)NC1=O [Compound 1281] ({CH2CO}-[Dap][4Pal]DWL[Bip]V[Dab][dL]NLVSCG-NH2; thioether N-14) was run?
A: The IC50 was 8.9 nM.
